From ChEMBL document CHEMBL1201862, “PubChem BioAssay data set” (2004)
The source made the active and inactive calls.

Assays:
[1] = Cytotoxicity screening for potential Inhibitors of Bacterial Capsule Biogenesis (4).; format: functional
[2] = target: Protein Wnt-3a (Mus musculus, UniProt P27467); assay: SAR analysis of small molecule antagonists of Gli-SUFU in a Wnt3a luminescent reporter assay.; format: functional
[3] = A549 cell cytotoxicity, dose response, cytotoxicity control, plate reader, cherry-pick, antagonist series (AID 743412); format: functional, cell-based
[4] = toxicity toward HepG2 liver cells – cell-based, plate reader, cherry-pick, antagonist series, cytotoxicity control, dose response (AID 743416); format: functional
[5] = inhibition of bursicon-driven LGR2 cAMP signaling – cell-based, HEK293, CRE-luciferase reporter, cherry pick, dose response (AID 743342); format: functional
[6] = blockade of melanocortin 4 receptor signaling – cell-based, plate reader, cherry pick, counter-screen for LGR2 antagonist project, dose response (AID 743444); format: functional;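 also: transfected HEK 293 cells stimulated with alpha-MSH peptide; potency of inhibitors of the alpha-MSH evoked signal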
[7] = viability loss in HEK293 cells – cell-based, plate reader, cherry-picked samples, cytotoxicity control, dose response (AID 743446); format: functional
[8] = target: Fatty acid synthase (Homo sapiens, UniProt P49327); assay: inhibition of human FAS-TE enzyme activity – biochemical, endpoint fluorescence intensity, powder samples, SAR follow-up (AID 652164); format: functional
[9] = human cervical cancer cell viability loss – 24 h, plate reader, dry powder, cytotoxicity control, dose response (AID 686928); format: functional, cell-based; conditions: HeLa
[10] = target: Disintegrin and metalloproteinase domain-containing protein 17 (Homo sapiens, UniProt P78536); assay: exosite inhibitors of ADAM17, dose response, biochemical (AID 743260)
[11] = inhibitors of TRPM1-promoter reporter in SK-MEL-5 – cell-based, luciferase, dry powder, set 9, MITF inhibitor project, dose response (AID 651588); format: functional
[12] = cytotoxicity in MITF-independent A375 cells – cell-based, CellTiter-Glo luminescence, dry powder, set 4, counter-screen for MITF inhibitor project, dose response (AID 624364); format: functional; conditions: A-375;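 also: A375 melanoma cells are MITF independent so this is a counter screen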
[13] = viability loss in MITF-independent A375 cells – cell-based, CellTiter-Glo luminescence, dry powder, set 7, counter-screen for MITF inhibitor project, dose response (AID 624490); format: functional; conditions: A-375
[14] = MITF Orthogonal Assay: MALME3 CTG Assay Measured in Cell-Based System Using Plate Reader - 2084-04_Inhibitor_Dose_DryPowder_Activity_Set6.; format: functional; conditions: MALME-3
[15] = growth inhibition of SK-MEL-5 melanoma cells – cell-based, CellTiter-Glo luminescence, dry powder, set 8, orthogonal assay for MITF inhibitor project, dose response (AID 651586); format: functional
[16] = growth inhibition of MALME3 cells – cell-based, CellTiter-Glo luminescence, dry powder, set 5, orthogonal assay for MITF inhibitor project, dose response (AID 651584); format: functional; conditions: MALME-3
[17] = cytotoxicity in melanoma parental cells – cell-based, CellTiter-Glo, dry powder, set 6, MITF inhibitor project, dose response (AID 624429); format: functional; conditions: SK-MEL-5
[18] = MITF Orthogonal Assay: SK-MEL-5 CTG Assay Measured in Cell-Based System Using Plate Reader - 2084-02_Inhibitor_Dose_DryPowder_Activity_Set5.; format: functional
[19] = viability loss in MITF-independent A375 cells – cell-based, CellTiter-Glo luminescence, dry powder, set 6, counter-screen for MITF inhibitor project, dose response (AID 624488); format: functional; conditions: A-375
[20] = cytotoxicity in MITF-independent A375 cells – cell-based, CellTiter-Glo luminescence, dry powder, set 9, counter-screen for MITF modulator project, dose response (AID 651591); format: functional; conditions: A-375
[21] = MITF Measured in Cell-Based System Using Plate Reader - 2084-01_Inhibitor_Dose_DryPowder_Activity_Set6.; format: functional
[22] = viability loss in MITF-independent A375 cells – cell-based, CellTiter-Glo luminescence, dry powder, set 2, counter-screen for MITF inhibitor project, dose response (AID 624489); format: functional; conditions: A-375;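 also: actives are compounds lowering A375 viability meaning general cytotoxicity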
[23] = MITF Measured in Cell-Based System Using Plate Reader - 2084-01_Inhibitor_Dose_DryPowder_Activity_Set7.; format: functional
[24] = target: Paired box protein Pax-8 (Homo sapiens, UniProt Q06710); assay: PAX8 transcriptional activity inhibition in RMG-I – RMG-I cells, luciferase, cherry-pick, dose response (AID 687027); format: functional, cell-based;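 also: luciferase reporter driven by Pax8 target thyroperoxidase promoter measured by SteadyGlo luminescence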
[25] = CMV-driven luciferase expression suppression in HEK293 – cell-based, luminescence, dry powder, counter-screen for Pax8 inhibitor project, dose response (AID 743020); format: functional
[26] = viability loss in HepG2 hepatoma cells – cell-based, cherry-picks, set 5, cytotoxicity control, dose response (AID 1053118); format: functional
[27] = viability loss in HEK293 kidney cells – cell-based, cherry-picks, set 5, cytotoxicity control, dose response (AID 1053117); format: functional
[28] = viability loss in A549 lung cancer cells – cell-based, cherry-picks, […], cytotoxicity control, dose response (AID 1053119); format: functional
[29] = Fluorescence-based cell-based high throughput dose response assay for inhibitors of the interaction of nucleotide-binding oligomerization domain containing 2 (NOD2) and the receptor-interacting serine-threonine kinase 2 (RIPK2).; format: functional; conditions: Homo sapiens
[30] = viability loss in HEK293T cells – cell-based, cherry-picks, cytotoxicity control for HIV Vif inhibitor project, dose response (AID 652208); format: functional
[31] = viability loss in THP-1 monocytes – THP-1 cells, cytotoxicity control for Vif-APOBEC3G degradation inhibitor project, dose response (AID 1117359); format: functional; conditions: THP-1
[32] = NIH-3T3 fibroblast cytotoxicity, dose response, cytotoxicity control, cell-based, fluorescence, Alamar Blue, secondary assay (AID 2327); format: functional;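 also: NIH-3T3 mouse fibroblasts cultured with fluconazole at 8 µg/mL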
[33] = system: BJ; assay: BJ-TERT fibroblast viability loss – cell-based, RAS-independent, luminescence, dose response (AID 1933); format: functional; conditions: Homo sapiens
[34] = system: BJ; assay: cells; format: functional, cell-based; conditions: Homo sapiens
[35] = fluconazole-exposed Candida albicans growth modulators – fluorescence, retest, confirmation (AID 2467); format: functional, cell-based
[36] = system: BJ; assay: BJ-TERT-LT-ST fibroblast viability loss – cell-based, RAS-independent, luminescence, dose response (AID 1935); format: functional; conditions: Homo sapiens;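 also: BJ fibroblasts immortalized with TERT plus LT and ST oncogenes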
[37] = DRD fibroblast viability loss – cell-based, non-viral oncogenic, luminescence, dose response (AID 1934); format: functional; conditions: Homo sapiens
[38] = target: Nonstructural protein 1 (Influenza A virus, UniProt Q194T2); format: functional, Influenza A virus (A/California/07/2009(H1N1))
[39] = viability loss in HeLa cells – cytotoxicity control for MgcRacGAP inhibitor project, dose response (AID 624300); format: functional
[40] = target: T1, Rac GTPase-activating protein 1 (Homo sapiens, UniProt Q9H0H5); assay: blockers of MgcRacGAP-driven Rac1 GTP hydrolysis – biochemical, ADP Hunter fluorescence, primary and confirmatory, confirmation (AID 624330); format: functional
T1 sequence (Q9H0H5 whole entry): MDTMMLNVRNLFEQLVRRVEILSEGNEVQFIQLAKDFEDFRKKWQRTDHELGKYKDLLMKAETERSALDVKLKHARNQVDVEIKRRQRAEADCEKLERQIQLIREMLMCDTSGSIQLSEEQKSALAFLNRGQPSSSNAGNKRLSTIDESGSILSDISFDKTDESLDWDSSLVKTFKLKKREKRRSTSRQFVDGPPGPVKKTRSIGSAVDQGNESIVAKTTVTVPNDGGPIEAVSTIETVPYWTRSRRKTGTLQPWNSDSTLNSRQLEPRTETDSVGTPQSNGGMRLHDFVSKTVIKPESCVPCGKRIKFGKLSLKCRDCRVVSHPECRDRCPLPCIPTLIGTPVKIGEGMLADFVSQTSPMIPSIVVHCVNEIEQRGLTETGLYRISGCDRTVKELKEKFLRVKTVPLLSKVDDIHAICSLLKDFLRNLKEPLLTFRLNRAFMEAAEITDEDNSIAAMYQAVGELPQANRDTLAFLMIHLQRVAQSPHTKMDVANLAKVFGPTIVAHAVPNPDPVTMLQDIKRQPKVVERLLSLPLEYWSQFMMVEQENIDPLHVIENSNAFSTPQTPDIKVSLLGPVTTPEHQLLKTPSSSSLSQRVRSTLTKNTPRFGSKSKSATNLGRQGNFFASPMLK

[41] = target: T2, Histone-lysine N-methyltransferase NSD2 (Homo sapiens, UniProt O96028); format: biochemical
T2 sequence (O96028 whole entry): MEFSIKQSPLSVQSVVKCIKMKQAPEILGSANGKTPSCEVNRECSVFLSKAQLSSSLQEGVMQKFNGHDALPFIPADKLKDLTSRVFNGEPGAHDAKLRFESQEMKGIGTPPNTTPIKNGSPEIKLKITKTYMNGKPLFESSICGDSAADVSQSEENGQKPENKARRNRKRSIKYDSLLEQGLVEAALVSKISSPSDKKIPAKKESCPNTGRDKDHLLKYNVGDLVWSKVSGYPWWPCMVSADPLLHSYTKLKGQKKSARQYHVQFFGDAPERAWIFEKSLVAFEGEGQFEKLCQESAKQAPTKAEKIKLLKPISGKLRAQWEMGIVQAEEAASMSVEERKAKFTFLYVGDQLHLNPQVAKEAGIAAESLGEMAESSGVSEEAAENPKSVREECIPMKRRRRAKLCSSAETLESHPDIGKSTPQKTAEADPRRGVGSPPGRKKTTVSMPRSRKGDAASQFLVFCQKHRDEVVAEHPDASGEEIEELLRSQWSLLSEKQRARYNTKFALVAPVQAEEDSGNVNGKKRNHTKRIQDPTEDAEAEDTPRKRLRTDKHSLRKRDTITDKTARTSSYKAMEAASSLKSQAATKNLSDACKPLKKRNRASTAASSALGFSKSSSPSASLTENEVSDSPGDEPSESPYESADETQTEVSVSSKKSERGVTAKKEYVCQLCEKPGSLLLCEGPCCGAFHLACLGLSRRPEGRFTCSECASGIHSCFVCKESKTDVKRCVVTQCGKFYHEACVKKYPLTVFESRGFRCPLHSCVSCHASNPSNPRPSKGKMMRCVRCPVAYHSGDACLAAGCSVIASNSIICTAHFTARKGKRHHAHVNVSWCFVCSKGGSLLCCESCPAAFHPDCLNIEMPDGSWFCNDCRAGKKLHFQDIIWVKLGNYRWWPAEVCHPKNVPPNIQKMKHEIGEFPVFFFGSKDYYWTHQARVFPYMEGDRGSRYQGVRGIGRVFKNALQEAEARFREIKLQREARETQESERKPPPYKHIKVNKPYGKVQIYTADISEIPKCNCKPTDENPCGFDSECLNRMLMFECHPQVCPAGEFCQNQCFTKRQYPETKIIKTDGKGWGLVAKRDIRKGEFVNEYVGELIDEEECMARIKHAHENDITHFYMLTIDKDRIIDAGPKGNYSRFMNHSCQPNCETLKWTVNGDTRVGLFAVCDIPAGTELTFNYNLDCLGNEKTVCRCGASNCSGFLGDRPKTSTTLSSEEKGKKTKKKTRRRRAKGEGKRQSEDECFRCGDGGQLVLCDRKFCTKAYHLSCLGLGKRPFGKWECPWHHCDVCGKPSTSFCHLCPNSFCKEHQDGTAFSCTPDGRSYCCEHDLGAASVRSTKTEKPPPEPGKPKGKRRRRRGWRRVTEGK

[42] = HGIII-sPLA2 enzyme inhibition potency – biochemical, QFRET, IC50, dose response (AID 743457);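 also: green fluorescence rise as the enzyme cleaves BODIPY PC-A2 in liposomes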

Paired box protein Pax-8, sequence (Q06710 whole entry): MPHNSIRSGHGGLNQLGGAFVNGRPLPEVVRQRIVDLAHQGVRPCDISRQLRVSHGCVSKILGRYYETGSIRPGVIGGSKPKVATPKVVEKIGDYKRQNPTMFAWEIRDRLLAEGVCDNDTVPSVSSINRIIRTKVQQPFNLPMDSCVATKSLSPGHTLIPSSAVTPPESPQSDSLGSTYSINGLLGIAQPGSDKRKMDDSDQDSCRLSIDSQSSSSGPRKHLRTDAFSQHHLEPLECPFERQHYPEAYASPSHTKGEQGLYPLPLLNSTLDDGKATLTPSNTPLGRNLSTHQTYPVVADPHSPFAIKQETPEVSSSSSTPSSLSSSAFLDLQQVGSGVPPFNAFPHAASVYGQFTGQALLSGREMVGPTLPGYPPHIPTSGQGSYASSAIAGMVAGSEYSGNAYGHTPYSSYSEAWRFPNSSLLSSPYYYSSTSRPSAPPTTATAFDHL
Protein Wnt-3a, sequence (P27467 whole entry): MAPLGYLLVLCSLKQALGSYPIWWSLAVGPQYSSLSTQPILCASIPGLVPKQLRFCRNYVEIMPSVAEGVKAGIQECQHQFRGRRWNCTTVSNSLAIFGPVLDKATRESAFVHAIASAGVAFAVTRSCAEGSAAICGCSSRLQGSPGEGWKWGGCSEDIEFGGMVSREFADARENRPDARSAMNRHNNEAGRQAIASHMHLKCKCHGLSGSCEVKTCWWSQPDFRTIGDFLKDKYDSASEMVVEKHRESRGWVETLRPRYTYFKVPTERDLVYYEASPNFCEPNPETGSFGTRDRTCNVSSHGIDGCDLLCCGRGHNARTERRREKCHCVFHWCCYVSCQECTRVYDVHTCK
Fatty acid synthase, sequence (P49327 whole entry): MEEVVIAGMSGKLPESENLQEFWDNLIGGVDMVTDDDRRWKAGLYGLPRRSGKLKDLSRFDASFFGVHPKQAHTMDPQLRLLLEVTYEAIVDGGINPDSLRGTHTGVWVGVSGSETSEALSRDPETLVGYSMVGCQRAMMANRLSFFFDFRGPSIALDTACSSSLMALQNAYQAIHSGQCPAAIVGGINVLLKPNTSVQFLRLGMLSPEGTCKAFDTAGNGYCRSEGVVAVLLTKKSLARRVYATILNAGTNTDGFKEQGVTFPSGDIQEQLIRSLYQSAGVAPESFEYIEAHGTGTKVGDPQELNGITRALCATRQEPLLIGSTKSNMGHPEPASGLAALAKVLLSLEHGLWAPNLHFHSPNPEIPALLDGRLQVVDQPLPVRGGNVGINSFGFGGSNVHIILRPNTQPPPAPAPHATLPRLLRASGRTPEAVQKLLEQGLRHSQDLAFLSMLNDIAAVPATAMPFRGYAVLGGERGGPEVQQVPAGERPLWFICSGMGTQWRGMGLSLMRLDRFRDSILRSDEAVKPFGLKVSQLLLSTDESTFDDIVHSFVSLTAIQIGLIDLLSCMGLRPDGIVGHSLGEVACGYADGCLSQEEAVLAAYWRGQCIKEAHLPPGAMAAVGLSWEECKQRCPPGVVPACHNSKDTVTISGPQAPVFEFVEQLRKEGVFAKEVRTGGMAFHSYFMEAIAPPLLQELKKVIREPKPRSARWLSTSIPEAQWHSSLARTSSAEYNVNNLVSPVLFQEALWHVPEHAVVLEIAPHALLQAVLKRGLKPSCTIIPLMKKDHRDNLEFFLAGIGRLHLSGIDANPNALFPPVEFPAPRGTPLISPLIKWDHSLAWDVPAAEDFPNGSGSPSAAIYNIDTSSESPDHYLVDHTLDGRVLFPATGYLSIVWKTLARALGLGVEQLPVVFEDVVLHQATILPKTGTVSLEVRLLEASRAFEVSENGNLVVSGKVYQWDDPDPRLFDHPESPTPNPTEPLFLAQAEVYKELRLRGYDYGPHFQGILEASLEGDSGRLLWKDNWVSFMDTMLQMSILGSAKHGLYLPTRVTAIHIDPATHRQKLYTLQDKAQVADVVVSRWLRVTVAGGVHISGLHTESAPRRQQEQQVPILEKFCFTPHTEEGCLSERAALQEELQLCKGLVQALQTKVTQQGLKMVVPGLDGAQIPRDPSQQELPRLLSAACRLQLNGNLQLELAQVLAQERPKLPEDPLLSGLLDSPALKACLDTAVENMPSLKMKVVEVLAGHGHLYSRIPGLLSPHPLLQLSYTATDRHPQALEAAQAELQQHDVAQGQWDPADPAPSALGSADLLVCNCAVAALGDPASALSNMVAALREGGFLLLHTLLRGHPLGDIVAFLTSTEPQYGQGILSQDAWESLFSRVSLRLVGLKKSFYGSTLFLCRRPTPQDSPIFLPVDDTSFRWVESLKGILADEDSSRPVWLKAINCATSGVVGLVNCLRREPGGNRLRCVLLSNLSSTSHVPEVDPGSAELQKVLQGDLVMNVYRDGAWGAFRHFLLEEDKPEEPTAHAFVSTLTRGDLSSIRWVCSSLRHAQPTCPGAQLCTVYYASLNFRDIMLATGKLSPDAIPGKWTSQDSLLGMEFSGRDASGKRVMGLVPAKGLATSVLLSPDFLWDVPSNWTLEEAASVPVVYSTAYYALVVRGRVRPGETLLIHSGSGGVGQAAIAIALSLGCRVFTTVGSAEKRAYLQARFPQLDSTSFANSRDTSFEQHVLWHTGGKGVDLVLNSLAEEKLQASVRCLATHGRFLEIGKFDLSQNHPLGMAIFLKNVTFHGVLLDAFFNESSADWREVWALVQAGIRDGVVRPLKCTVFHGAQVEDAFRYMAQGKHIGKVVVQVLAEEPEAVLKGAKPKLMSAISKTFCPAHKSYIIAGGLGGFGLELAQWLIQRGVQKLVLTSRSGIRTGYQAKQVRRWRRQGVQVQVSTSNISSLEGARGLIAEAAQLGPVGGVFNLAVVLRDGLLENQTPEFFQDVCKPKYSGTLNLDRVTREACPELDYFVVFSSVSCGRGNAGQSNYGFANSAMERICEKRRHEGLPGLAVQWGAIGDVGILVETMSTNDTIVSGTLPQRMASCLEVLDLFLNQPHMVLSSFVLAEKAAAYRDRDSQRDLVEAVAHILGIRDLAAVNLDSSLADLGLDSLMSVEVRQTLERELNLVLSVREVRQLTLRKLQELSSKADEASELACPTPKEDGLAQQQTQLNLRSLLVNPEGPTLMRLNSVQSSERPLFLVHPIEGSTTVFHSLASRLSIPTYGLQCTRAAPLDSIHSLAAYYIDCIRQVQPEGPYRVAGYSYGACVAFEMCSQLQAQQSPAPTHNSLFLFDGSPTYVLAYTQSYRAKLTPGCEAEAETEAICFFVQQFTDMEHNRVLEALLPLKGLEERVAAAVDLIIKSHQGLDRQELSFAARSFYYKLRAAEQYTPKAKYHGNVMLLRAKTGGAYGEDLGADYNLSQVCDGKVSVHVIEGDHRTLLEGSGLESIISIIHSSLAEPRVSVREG
Disintegrin and metalloproteinase domain-containing protein 17, sequence (P78536 whole entry, the tested form may be a part): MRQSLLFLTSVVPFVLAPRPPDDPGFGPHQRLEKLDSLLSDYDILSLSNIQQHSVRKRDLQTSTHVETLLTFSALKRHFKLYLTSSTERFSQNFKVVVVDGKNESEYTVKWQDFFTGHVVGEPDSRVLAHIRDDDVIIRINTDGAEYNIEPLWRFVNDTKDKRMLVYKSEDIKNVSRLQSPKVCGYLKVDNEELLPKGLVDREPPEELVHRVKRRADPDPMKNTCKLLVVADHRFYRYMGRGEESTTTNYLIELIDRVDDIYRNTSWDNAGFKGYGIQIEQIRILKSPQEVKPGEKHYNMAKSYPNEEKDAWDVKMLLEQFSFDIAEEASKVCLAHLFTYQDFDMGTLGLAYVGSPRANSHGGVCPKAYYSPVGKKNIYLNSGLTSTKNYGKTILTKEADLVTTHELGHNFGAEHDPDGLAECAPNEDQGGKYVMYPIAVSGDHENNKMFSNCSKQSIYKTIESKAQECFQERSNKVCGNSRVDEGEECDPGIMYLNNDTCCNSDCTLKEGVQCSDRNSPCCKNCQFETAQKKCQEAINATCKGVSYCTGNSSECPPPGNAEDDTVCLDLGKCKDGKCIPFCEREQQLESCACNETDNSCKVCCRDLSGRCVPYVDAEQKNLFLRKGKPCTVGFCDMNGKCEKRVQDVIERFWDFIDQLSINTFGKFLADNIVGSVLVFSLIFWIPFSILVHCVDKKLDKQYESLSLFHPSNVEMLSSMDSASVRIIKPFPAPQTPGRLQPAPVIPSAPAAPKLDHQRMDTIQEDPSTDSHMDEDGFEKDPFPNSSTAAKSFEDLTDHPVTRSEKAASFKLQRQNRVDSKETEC
Nonstructural protein 1, sequence (Q194T2 whole entry): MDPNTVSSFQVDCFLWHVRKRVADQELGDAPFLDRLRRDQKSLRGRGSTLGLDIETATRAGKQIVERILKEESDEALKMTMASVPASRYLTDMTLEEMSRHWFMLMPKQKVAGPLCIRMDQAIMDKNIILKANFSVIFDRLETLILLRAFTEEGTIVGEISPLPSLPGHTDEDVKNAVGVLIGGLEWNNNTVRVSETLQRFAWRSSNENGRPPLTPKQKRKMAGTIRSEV

COc1cc(NC(=O)c2ccc3nc(C)sc3c2)ccn1
CC50 [1]: > 300 µM (inactive)

O=C(Nc1cc(N2CCCCCC2)ncn1)c1ccccc1
IC50 [2]: > 21.8 µM (inactive)

C[C@H](CO)N1C[C@H](C)[C@H](CN(C)C(=O)Nc2ccc(F)cc2)OCCCC[C@H](C)Oc2ccc(NC(=O)Nc3ccccc3)cc2C1=O
AC50 [3]: 37 µM (active) | AC50 [4]: 35.2 µM (active) | AC50 [5]: 6.77 µM (active) | AC50 [6]: 44.4 µM (active) | AC50 [7]: 40.6 µM (active)

O=C(Nc1nc(-c2ccc(S(=O)(=O)N3CCOCC3)cc2)cs1)C1CCCCC1
IC50 [8]: > 80 µM (inactive)

CC(C)c1ccc2cc3c(NC(=O)c4ccco4)nn(C)c3nc2c1
AC50 [9]: 91.9 µM (active)

CCOc1ccc(NC(=O)CC2SC(=O)N(c3ccccc3)C2=O)cc1 (stereo not drawn)
IC50 [10]: 5.73 µM (active)

O=C(NC1=C(Cl)C(=O)c2ccccc2C1=O)c1ccccc1
AC50 [11]: 1.95 µM (active) | AC50 [12]: 45.9 µM (active) | AC50 [13]: 23.1 µM (active) | AC50 [14]: 7.33 µM (active) | AC50 [15]: 3.94 µM (active) | AC50 [16]: 7.33 µM (active) | AC50 [17]: 9.85 µM (active) | AC50 [18]: 13.5 µM (active) | AC50 [19]: 16.5 µM (active) | AC50 [20]: 28.7 µM (active) | AC50 [21]: 0.459 µM (active) | AC50 [22]: 22.8 µM (active) | AC50 [23]: 0.913 µM (active)

CC(=O)c1cc(NC(=O)c2cccc(C(F)(F)F)c2)c(=O)oc1C
AC50 [24]: 15.8 µM (active) | AC50 [25]: < 9 µM (active)

CO[C@@H]1CN(C)C(=O)c2ccc(NC(=O)c3ccc(-c4ccccc4)cc3)cc2OC[C@H](C)NC[C@H]1C
AC50 [26]: 11.3 µM (active) | AC50 [27]: 14 µM (active) | AC50 [28]: 13.6 µM (active)

C=CC(=O)N1C/C(=C/c2ccc(F)cc2)C(=O)/C(=C\c2ccc(F)cc2)C1
IC50 [29]: 3.71 µM (active) | AC50 [30]: 1.4 µM (active) | AC50 [24]: 2.36 µM (active) | CC50 [31]: 0.57 µM (active)

CN(C)c1ccc(/C=C/C=C/c2sc3ccccc3[n+]2C)cc1.[O-][Cl+3]([O-])([O-])[O-]
EC50 [32]: > 150 µM (inactive) | EC50 [33]: 2.83 µM (inconclusive) | EC50 [34]: 4.81 µM (active) | EC50 [35]: 0.194 µM (active) | EC50 [36]: 29.2 µM (active) | EC50 [37]: 4.85 µM (active) | IC50 [38]: 15 µM (active) | CC50 [39]: 64 µM (active) | IC50 [40]: 62.6 µM (active) | AC50 [41]: 15.8 µM (active) | IC50 [42]: 41.6 µM (inactive)
